Data on one compound can be found in US20240335508A1, “HYBRID GOLD NANOPARTICLE-LIPID NANOPARTICLES AND METHODS OF USE AND PRODUCTION THEREOF” (THE BOARD OF REGENTS OF THE UNIVERSITY OF OKLAHOMA, priority 2023, published 2024).

This assay relates to TOV-112D cells. Description: DOX AuNSV cytotoxicity, MTS assay. The class given is cell-based. The settings on record: 0.5 and 0.25 μg/mL DOX. The method, then:
TOV-112D cells were cultured in RPMI 1640 media containing 10% FBS and 1% penicillin-streptomycin at 37° C. with 5% CO2. Cells were seeded on 96-well plates in 100 μL of media at 7,500 cells per well. The next day, cells were treated in triplicate with NSVs, AuNSVs, DOX, DOX NSVs, and DOX AuNSVs at concentrations of 0.5, 0.25, 0.1, and 0.05 μg/mL DOX equivalence. After 24, 48, and 72 hours of treatment, 10 μL of CellTiter 96® AQueous One Solution Cell Proliferation Assay (MTS) (Promega, Madison, WI) was added to each well and incubated for 3-4 hours. After incubation, the well absorbance was measured at 490 nm with a SPECTROstar plate reader with cell viability calculated from the ratio of absorbance between untreated controls and each treatment group.

Turning to `COc1cccc2c1C(=O)c1c(O)c3c(c(O)c1C2=O)C[C@@](O)(C(=O)CO)C[C@@H]3O[C@H]1C[C@H](N)[C@H](O)[C@H](C)O1` [DOX, Doxorubicin], the Cell viability entry is on record as “decreased cell viability faster than either the DOX NSV or DOX AuNSV”.
